In patent publication US8759334B2, “Compounds useful for the treatment of metabolic and inflammatory diseases” (Galapagos NV, priority 2011, dated 2014):

Molecular target: T1, GPR43 (Homo sapiens, UniProt O15552)
T1 construct: expressed in transfected cells
T1 sequence (O15552 1-330): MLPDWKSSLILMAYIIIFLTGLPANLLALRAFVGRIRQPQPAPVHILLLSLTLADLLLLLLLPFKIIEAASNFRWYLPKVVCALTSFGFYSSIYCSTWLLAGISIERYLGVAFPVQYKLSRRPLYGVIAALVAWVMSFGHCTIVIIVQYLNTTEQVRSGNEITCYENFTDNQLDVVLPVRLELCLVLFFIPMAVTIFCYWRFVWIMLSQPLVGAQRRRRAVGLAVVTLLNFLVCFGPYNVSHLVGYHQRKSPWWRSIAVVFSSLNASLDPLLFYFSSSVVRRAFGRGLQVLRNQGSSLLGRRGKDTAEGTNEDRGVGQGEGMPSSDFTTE
Assay: Calcium mobilization assay with probenecid
Assay type: cell-based
Settings: GPR43 stably expressing cells; triggered with sodium acetate at EC80; 2.5 mM probenecid; read-out: GPR43 assay with probenicid IC50
Procedure: The following assay can be used for determination of GPR43 activation. The assay measures intracellular calcium release induced by activation of GPR43. On day 1, GPR43 stably expressing cells were detached with mild trypsinization (Trypsin, 0.25% with EDTA 4Na, 5× diluted in PBS) centrifuged at 1000 rpm for 5 min and resuspended at 6.000 cells/25 […] medium (DMEM supplemented with 10% FBS, 10 μg/mL puromycin and 1% Pen/Strep). The cells were distributed in poly-D-lysine coated 384 well plates (black with clear bottom, 25 μL/well) and incubated overnight at 37° C. 10% CO2.
On day 2, 25 μL of a fluorescent Ca^2+ indicator (Calcium 4 assay; Molecular Devices) supplemented with 2.5 mM probenecid was added on top of the cells and incubated for 2 h at 37° C. Subsequently, compounds at increasing concentration (10 μL/well) were added to the plate and incubated for 15 min at 37° C.
To measure agonist activity of the compounds, compound was added to the well and the Ca^2+-flux was measured simultaneously to the […] of compound.

Row | Structure (SMILES) | IC50 [nM]
1 | CCOC(=O)CCCN(Cc1ccc(C(F)(F)F)cc1)C(=O)C1(C)CCN1C(=O)Cc1cc(C)cc(C)c1 (stereo not drawn) [Compound 165, 4-[{1-[2-(3,5-Dimethyl-phenyl)-acetyl]-2-methyl-azetidine-2-carbonyl}-(4-trifluoromethyl-benzyl)-amino]-butyric acid ethyl ester] | 501 to 1000
2 | CC1(C(=O)N(CCCC(N)=O)Cc2ccc(Cl)cc2)CCN1C(=O)Cc1coc2ccccc12 (stereo not drawn) [Compound 166, 1-(2-Benzofuran-3-yl-acetyl)-2-methyl-azetidine-2-carboxylic acid (3-carbamoyl-propyl)-(4-chloro-benzyl)-amide] | 101 to 500
3 | CCOC(=O)CCCN(Cc1ccc(C(F)(F)F)cc1)C(=O)C1(C)CCN1C(=O)Cc1coc2ccccc12 (stereo not drawn) [Compound 167, 4-[[1-(2-Benzofuran-3-yl-acetyl)-2-methyl-azetidine-2-carbonyl]-(4-trifluoromethyl-benzyl)-amino]-butyric acid ethyl ester] | > 1000
4 | COc1ccc(CNS(=O)(=O)CCCN(Cc2ccc(Cl)cc2)C(=O)C2(C)CCN2C(=O)Cc2cc(C)cc(C)c2)c(OC)c1 (stereo not drawn) [Compound 168, 1-[2-(3,5-Dimethyl-phenyl)-acetyl]-2-methyl-azetidine-2-carboxylic acid (4-chloro-benzyl)-[3-(2,4-dimethoxy-benzylsulfamoyl)-propyl]-amide] | > 1000
5 | Cc1cc(C)cc(CC(=O)N2CCC2(C)C(=O)N(CCCS(N)(=O)=O)Cc2ccc(Cl)cc2)c1 (stereo not drawn) [Compound 171, 1-[2-(3,5-Dimethyl-phenyl)-acetyl]-2-methyl-azetidine-2-carboxylic acid (4-chloro-benzyl)-(3-sulfamoyl-propyl)-amide] | 101 to 500
6 | CNS(=O)(=O)CCCN(Cc1ccc(Cl)cc1)C(=O)C1(C)CCN1C(=O)Cc1cc(C)cc(C)c1 (stereo not drawn) [Compound 174, 1-[2-(3,5-Dimethyl-phenyl)-acetyl]-2-methyl-azetidine-2-carboxylic acid (4-chloro-benzyl)-(3-methylsulfamoyl-propyl)-amide] | 101 to 500
7 | Cc1cc(C)cc(CC(=O)N2CCC2(C)C(=O)N(CCS(=O)(=O)N2CCOCC2)Cc2ccc(Cl)cc2)c1 (stereo not drawn) [Compound 179, 1-[2-(3,5-Dimethyl-phenyl)-acetyl]-2-methyl-azetidine-2-carboxylic acid (4-chloro-benzyl)-[2-(morpholine-4-sulfonyl)-ethyl]-amide] | > 1000
8 | Cc1cc(C)cc(CC(=O)N2CCC2(C)C(=O)N(CCCS(=O)(=O)N2CCN(C)CC2)Cc2ccc(Cl)cc2)c1 (stereo not drawn) [Compound 180, 1-[2-(3,5-Dimethyl-phenyl)-acetyl]-2-methyl-azetidine-2-carboxylic acid (4-chloro-benzyl)-[3-(4-methyl-piperazine-1-sulfonyl)-propyl]-amide] | 501 to 1000
9 | Cc1cc(C)cc(CC(=O)N2CCC2(C)C(=O)N(CCCC(=O)O)Cc2ccc3scnc3c2)c1 (stereo not drawn) [Compound 185, 4-(Benzothiazol-5-ylmethyl-{1-[2-(3,5-dimethyl-phenyl)-acetyl]-2-methyl-azetidine-2-carbonyl}-amino)-butyric acid] | 501 to 1000
10 | CNS(=O)(=O)CCCN(Cc1ccc(Cl)cc1)C(=O)C1(C)CCN1C(=O)c1csc2ccccc12 (stereo not drawn) [Compound 186, 1-(Benzo[b]thiophene-3-carbonyl)-2-methyl-azetidine-2-carboxlic acid (4-chloro-benzyl)-(3-methylsulfamoyl-propyl)-amide] | 101 to 500
11 | CC1(C(=O)N(CCS(N)(=O)=O)Cc2ccc(Cl)cc2)CCN1C(=O)c1csc2ccccc12 (stereo not drawn) [Compound 192, 1-(Benzo[b]thiophene-3-carbonyl)-2-methyl-azetidine-2-carboxylic acid (4-chloro-benzyl)-(2-sulfamoyl-ethyl)-amide] | 0.01 to 100
12 | CNS(=O)(=O)CCN(Cc1ccc(Cl)cc1)C(=O)C1(C)CCN1C(=O)c1csc2ccccc12 (stereo not drawn) [Compound 193, 1-(Benzo[b]thiophene-3-carbonyl)-2-methyl-azetidine-2-carboxylic acid (4-chloro-benzyl)-(2-methylsulfamoyl-ethyl)-amide] | 101 to 500

More lines, now with the values ahead:

Row | IC50 [nM] | Structure (SMILES)
13 | 101 to 500 | CC1(C(=O)N(CCCC(=O)O)Cc2ccc3ccoc3c2)CCN1C(=O)c1csc2ccccc12 (stereo not drawn) [Compound 163, 4-{[1-(Benzo[b]thiophene-3-carbonyl)-2-methyl-azetidine-2-carbonyl]-benzofuran-6-ylmethyl-amino}-butyric acid]
14 | 101 to 500 | CC1(C(=O)N(CCCC(=O)O)Cc2ccc3ccoc3c2)CCN1C(=O)Cc1coc2ccccc12 (stereo not drawn) [Compound 164, 4-{[1-(2-Benzofuran-3-yl-acetyl)-2-methyl-azetidine-2-carbonyl]-benzofuran-6-ylmethyl-amino}-butyric acid]
15 | 101 to 500 | CC1(C(=O)N(CCC(=O)O)Cc2cccc(Cl)c2)CCN1C(=O)Cc1csc2ccccc12 (stereo not drawn) [Compound 170, 3-[[1-(2-Benzo[b]thiophen-3-yl-acetyl)-2-methyl-azetidine-2-carbonyl]-(3-chloro-benzyl)-amino]-propionic acid]
16 | 101 to 500 | COC(=O)CCN(Cc1cccc(Cl)c1)C(=O)C1(C)CCN1C(=O)c1csc2ccccc12 (stereo not drawn) [Compound 172, 3-[[1-(Benzo[b]thiophene-3-carbonyl)-2-methyl-azetidine-2-carbonyl]-(3-chloro-benzyl)-amino]-propionic acid methyl ester]
17 | 101 to 500 | COC(=O)CCN(Cc1cccc(Cl)c1)C(=O)C1(C)CCN1C(=O)Cc1csc2ccccc12 (stereo not drawn) [Compound 173, 3-[[1-(2-Benzo[b]thiophen-3-yl-acetyl)-2-methyl-azetidine-2-carbonyl]-(3-chloro-benzyl)-amino]-propionic acid methyl ester]
18 | 0.01 to 100 | COC(=O)CCN(Cc1ccc2cn[nH]c2c1)C(=O)C1(C)CCN1C(=O)Cc1csc2ccccc12 (stereo not drawn) [Compound 175, 3-[[1-(2-Benzo[b]thiophen-3-yl-acetyl)-2-methyl-azetidine-2-carbonyl]-(1H-indazol-6-ylmethyl)-amino]-propionic acid methyl ester]
19 | 101 to 500 | CC1(C(=O)N(CCC(=O)O)Cc2ccc3cn[nH]c3c2)CCN1C(=O)Cc1csc2ccccc12 (stereo not drawn) [Compound 176, 3-[[1-(2-Benzo[b]thiophen-3-yl-acetyl)-2-methyl-azetidine-2-carbonyl]-(1H-indazol-6-ylmethyl)-amino]-propionic acid]
20 | > 1000 | CC1(C(=O)N(CCCC(=O)O)Cc2ccn3ccnc3c2)CCN1C(=O)Cc1csc2ccccc12 (stereo not drawn) [Compound 177, 4-{[1-(2-Benzo[b]thiophen-3-yl-acetyl)-2-methyl-azetidine-2-carbonyl]-imidazo[1,2-a]pyridin-7-ylmethyl-amino}-butyric acid]
21 | > 1000 | COc1ccc(CNS(=O)(=O)CCCN(Cc2ccc(Cl)cc2)C(=O)C2(C)CCN2C(=O)Cc2csc3ccccc23)c(OC)c1 (stereo not drawn) [Compound 178, 1-(2-Benzo[b]thiophen-3-yl-acetyl)-2-methyl-azetidine-2-carboxylic acid (4-chloro-benzyl)-[3-(2,4-dimethoxy-benzylsulfamoyl)-propyl]-amide]
22 | 0.01 to 100 | CC1(C(=O)N(CCCS(N)(=O)=O)Cc2ccc(Cl)cc2)CCN1C(=O)Cc1csc2ccccc12 (stereo not drawn) [Compound 181, 1-(2-Benzo[b]thiophen-3-yl-acetyl)-2-methyl-azetidine-2-carboxylic acid (4-chloro-benzyl)-(3-sulfamoyl-propyl)-amide]
23 | 0.01 to 100 | CC1(C(=O)N(CCCC(=O)O)Cc2ccc3scnc3c2)CCN1C(=O)Cc1csc2ccccc12 (stereo not drawn) [Compound 183, 4-{[1-(2-Benzo[b]thiophen-3-yl-acetyl)-2-methyl-azetidine-2-carbonyl]-benzothiazol-5-ylmethyl-amino}-butyric acid]
24 | 101 to 500 | CC1(C(=O)N(CCCC(=O)O)Cc2ccc3scnc3c2)CCN1C(=O)c1csc2ccccc12 (stereo not drawn) [Compound 184, 4-{[1-(Benzo[b]thiophene-3-carbonyl)-2-methyl-azetidine-2-carbonyl]-benzothiazol-5-ylmethyl-amino}-butyric acid]
25 | 501 to 1000 | CC1(C(=O)N(CCC(=O)O)Cc2ccc3cn[nH]c3c2)CCN1C(=O)c1csc2ccccc12 (stereo not drawn) [Compound 188, 3-[[1-(Benzo[b]thiophene-3-carbonyl)-2-methyl-azetidine-2-carbonyl]-(1H-indazol-6-ylmethyl)-amino]-propionic acid]
26 | 0.01 to 100 | CNS(=O)(=O)CCCN(Cc1ccc(Cl)cc1)C(=O)C1(C)CCN1C(=O)Cc1csc2ccccc12 (stereo not drawn) [Compound 189, 1-(2-Benzo[b]thiophen-3-yl-acetyl)-2-methyl-azetidine-2-carboxylic acid (4-chloro-benzyl)-(3-methylsulfamoyl-propyl)-amide]
27 | 0.01 to 100 | CNS(=O)(=O)CCCN(Cc1cccc(Cl)c1)C(=O)C1(C)CCN1C(=O)c1csc2ccccc12 (stereo not drawn) [Compound 190, 1-(Benzo[b]thiophene-3-carbonyl)-2-methyl-azetidine-2-carboxylic acid (3-chloro-benzyl)-(3-methylsulfamoyl-propyl)-amide]
